# Patent US20130065964A1, “PERITONEAL DIALYSIS SOLUTION” (UNIVERSIDAD DE CASTILLA LA MANCHA, priority 2010, published 2013)
# Legend:
# [1] = system: rat peritoneal mesothelial cells; experiment: Cytotoxicity study, LDH release; format: cell-based; details: rat PMCs, 72 hours, FIG. 5
# Description: The cells were treated with carrier or aliskiren for 72 hours and cell viability was evaluated quantifying the LDH released into the culture medium. The data is expressed as mean±SEM, n=12. * p<0.05 compared to the control (carrier).
# Rat peritoneal mesothelial cells were isolated by enzymatic digestion in accordance with protocols described in Hjelle J T, Golinska B T, Waters D C, et al. Perit Dial Int 1989; 9: 341-7. Briefly, female rats weighing 200-400 g of the Spragle-Dawley strain were sacrificed pursuant to Royal Decree 1201/2005, of 10 Oct., on protection of animals used for experimental and other scientific purposes. The abdominal cavity was quickly opened and the abdominal wall (peritoneum and smooth muscle) extracted under sterile conditions. […]
# To this end, the cells were seeded on 24-well plates and exposed to the peritoneal dialysis solutions object of the present invention to study their toxicity. The toxic effects were evaluated measuring cell membrane rupture and the consequent release of LDH to the supernatant through the CytoTox96® kit (Promega). […] Absorbance of the lysate and cell supernatant was obtained using a microplate spectrophotometer at a wavelength of 490 nm, following the manufacturer's instructions.
# peritoneum = experiment: Chronic peritoneal dialysis in rats, peritoneal equilibrium test (PET); format: in vivo, rat; details: rats dialysed daily for four weeks with PDF, aliskiren 0.1 or 1 mg/Kg, FIGS. 12 and 13
# Description: The rats were exposed daily for four weeks to carrier (saline serum), 1.5% PDF, 2.3% PDF or 4.5% PDF supplemented by carrier, 0.1 mg/Kg aliskiren or 1 mg/Kg aliskiren. The data are expressed as mean±SEM, n=6 rats per group. * p<0.05, compared to the group treated with carrier in the absence of aliskiren (carrier). # p<0.05, compared to their respective groups treated with PDFs in the absence of aliskiren. […] The rats were exposed daily for four weeks to carrier (saline serum), 1.5% PDF, 2.3% PDF or 4.5% PDF supplemented by carrier, 0.1 mg/Kg aliskiren or 1 mg/Kg aliskiren. The data is expressed as mean media±SEM, n=6 rats per group. * p<0.05, compared to the group treated with carrier in the absence of aliskiren (carrier). # p<0.05, compared to their respective groups treated with PDFs in the absence of aliskiren. […] Their body weight was measured at the start and end of the experimental period. […] The concentrations of creatinine and glucose in the serum and dialysate were measured using enzymatic methods. The peritoneal transport of solutes was calculated, on one hand, as the glucose concentration in the dialysate 2 hours after the PET relative to the initial glucose concentration in the PDF (D2/D0 glucose) and, on the other, as the dialysate/plasma creatinine concentration ratio (D2/P2 creatinine) 2 h after the PET. […]
smiles,measurement,setting,value
COCCCOc1cc(C[C@@H](C[C@H](N)[C@@H](O)C[C@H](C(=O)NCC(C)(C)C(N)=O)C(C)C)C(C)C)ccc1OC [aliskiren],concentration at which toxicity with respect to mesothelial cells is shown (LDH released),[1],≥ 1000 µM
same,"peritoneal damage in vivo (D2/D0 glucose, D2/P2 creatinine)",peritoneum,reduced peritoneal damage
